Results: patent EP0104572A1, “Benzyl ethers of phenol Mannich bases, process for their production, their use and pharmaceutical preparations based on these compounds, intermediates and process for their production” (priority 1982, dated 1984)
Read-outs that look alike come from different tables or passages of the source.

Experiments:
[1] = Change of relative liver weight and liver findings in the 7-day oral rat study; format: in vivo, männlichen Wistar-Ratten; details: oral (gavage), 7 days, male Wistar rats
Source text: Die erfindungsgemäßen Verbindungen haben wertvolle therapeutische Eigenschaften. So erniedrigen sie vor allem die Konzentration von LDL und VLDL, die HDL-Fraktion aber kaum, in vielen Fällen wird diese Fraktion sogar vermehrt. Diese Verbindungen stellen daher einen wesentlichen Fortschritt gegenüber der Vergleichsverbindung Clofibrat dar, wie aus .den nachfolgend beschriebenen Daten ersichtlich ist. Sie können daher zur Prophylaxe und Regression von arteriosklerotischen Veränderungen herangezogen werden, indem sie einen kausalen Risikofaktor ausschalten. Hierzu zählen nicht nur die primären Hyperlidämien, sondern auch gewisse sekundäre Hyperlipidämien wie sie z.B. beim Diabetes vorkommen. […] Die mit einer hypolipidämischen Wirkung verbundene unerwünschte Beeinflussung der Leber zeigt sich auch in sehr starkem Maße bei der in J.Med.Chem. 18 (1975) S. 833-836 beschriebenen Vergleichsverbindung 1-(4-Methylbenzyl)-imidazol. […] Die erfindungsgemäßen Verbindungen zeigen dieses unerwünschte Verhalten nicht.
(§1) Die Wirkung der angeführten Verbindungen auf die Serum- Lipoproteine wurde an männlichen Wistar-Ratten untersucht, die 7 Tage per Schlundsonde mit den angeführten in Polyäthylenglykol 400 suspendierten Verbindungen behandelt wurden. Außerdem wurde eine Kontrollgruppe, die nur das Lösungsmittel Polyäthylenglykol 400 erhielt, mitgeführt, sowie bei den meisten Versuchen eine Ratten-Gruppe mit dem Standardhypolipidämikum Clofibrat. Pro Gruppe wurden in der Regel 10 Tiere eingesetzt, denen am Ende der Behandlung das Blut nach leichter Äthernarkose aus dem Orbitalplexus entnommen wurde. Aus dem gewonnenen Ratten-Serum wurden die Serum- Lipoproteine in der präparativen Ultrazentrifuge in folgende Dichteklassen getrennt: VLDL < 1,006; LDL 1,006 bis 1,04; HDL 1,04 bis 1,21

[2] = test system: Serum-Lipoproteine; assay: Change of serum and lipoprotein-fraction cholesterol in rats after 7 days of oral treatment (ultracentrifuge fractionation, CHOD-PAP cholesterol); format: in vivo, männlichen Wistar-Ratten; details: Rattus norvegicus, 168 h, oral (gavage), 7 days, male Wistar rats; for change in vivo at 1 mg/kg: 1 mg/kg / Tag; for change in vivo at 3 mg/kg: 3 mg/kg / Tag; for change in vivo at 10 mg/kg: 10 mg/kg / Tag
Source text: as §1
Da nämlich im Gegensatz zum Menschen die Serumlipoproteine der Ratte etwa 4/5 HDL-Cholesterin und nur 1/5 LDL-Cholesterin enthalten und nur sehr geringe Mengen von VLDL (beim Menschen umgekehrt etwa 2/3 LDL und VLDL und nur 1/3 bis 1/4 HDL), macht die Beurteilung einer hypolipidämischen Wir- .kung an der Ratte unbedingt eine Fraktionierung des Ratten-serums in Lipoproteinklassen erforderlich. Eine bloße Erniedrigung des Serum-Total-cholesteringehaltes an der Ratte würde nämlich nur die unerwünschte Erniedrigung der bei der Ratte vorwiegenden antiatherogenen HDL-Klasse anzeigen. Eine erwünschte Erniedrigung von LDL bei gleichzeitiger erwünschter Vermehrung von HDL hätte aber keine (wesentliche) Auswirkung auf den Totalcholesteringehalt des Ratten-Serums.
Aus den in der Ultrazentrifuge isolierten LipoproteinFraktionen wurde das darin enthaltene Cholesterin vollenzymatisch nach der CHOD-PAP-Methode mittels der Testkombination von Boehringer-Mannheim bestimmt und die Werte in µg/ml Serum umgerechnet. In der angeführten Tabelle ist die Veränderung des Lipoprotein-Cholesterins in der behandelten Gruppe gegenüber einer unter gleichen Bedingungen mitgeführten Kontrollgruppe angegeben.
Veränderung in % der Lipoproteine im Ratten-Serum nach siebentägiger oraler Applikation der Verbindungen

[3] = read-out: Cholesterolveränderung in %, bezogen auf die Kontrollgruppe in den Serum-Lipoprotein-Fraktionen HDL
[4] = read-out: Cholesterolveränderung in %, bezogen auf die Kontrollgruppe in den Serum-Lipoprotein-Fraktionen LDL
[5] = read-out: Cholesterolveränderung in %, bezogen auf die Kontrollgruppe in den Serum-Lipoprotein-Fraktionen VLDL

Compound: Cc1cc(Cn2ccnc2)cc(C)c1OCc1ccc(C(=O)C(C)(C)C)cc1 [Beispiel 3, 4-[2,6-Dimethyl-4-(imidazol-1-ylmethyl)-phenoxymethyl]-phenyl-tert.-butyl-keton]
- % Veränderung des relativen Lebergewichtes ([1]; 1 mg/kg / Tag): -2%
- % Veränderung des relativen Lebergewichtes ([1]; 3 mg/kg / Tag): -4%
- change in vivo at 1 mg/kg [2, 3]: 5%
- change in vivo at 1 mg/kg [2, 4]: -33%
- change in vivo at 1 mg/kg [2, 5]: 30%
- change in vivo at 3 mg/kg [2, 3]: 2%
- change in vivo at 3 mg/kg [2, 4]: -36%
- change in vivo at 3 mg/kg [2, 5]: 17%
- change in vivo at 10 mg/kg [2, 3]: 2%
- change in vivo at 10 mg/kg [2, 4]: -45%
- change in vivo at 10 mg/kg [2, 5]: -58%
